The source of these data is the Kinase Knowledgebase extract (Sharma et al. 2016).

The target in the experiment is EGFR (UniProt P00533).

Each structure is given as a SMILES string.

EGFR, sequence (P00533 whole entry, looked up): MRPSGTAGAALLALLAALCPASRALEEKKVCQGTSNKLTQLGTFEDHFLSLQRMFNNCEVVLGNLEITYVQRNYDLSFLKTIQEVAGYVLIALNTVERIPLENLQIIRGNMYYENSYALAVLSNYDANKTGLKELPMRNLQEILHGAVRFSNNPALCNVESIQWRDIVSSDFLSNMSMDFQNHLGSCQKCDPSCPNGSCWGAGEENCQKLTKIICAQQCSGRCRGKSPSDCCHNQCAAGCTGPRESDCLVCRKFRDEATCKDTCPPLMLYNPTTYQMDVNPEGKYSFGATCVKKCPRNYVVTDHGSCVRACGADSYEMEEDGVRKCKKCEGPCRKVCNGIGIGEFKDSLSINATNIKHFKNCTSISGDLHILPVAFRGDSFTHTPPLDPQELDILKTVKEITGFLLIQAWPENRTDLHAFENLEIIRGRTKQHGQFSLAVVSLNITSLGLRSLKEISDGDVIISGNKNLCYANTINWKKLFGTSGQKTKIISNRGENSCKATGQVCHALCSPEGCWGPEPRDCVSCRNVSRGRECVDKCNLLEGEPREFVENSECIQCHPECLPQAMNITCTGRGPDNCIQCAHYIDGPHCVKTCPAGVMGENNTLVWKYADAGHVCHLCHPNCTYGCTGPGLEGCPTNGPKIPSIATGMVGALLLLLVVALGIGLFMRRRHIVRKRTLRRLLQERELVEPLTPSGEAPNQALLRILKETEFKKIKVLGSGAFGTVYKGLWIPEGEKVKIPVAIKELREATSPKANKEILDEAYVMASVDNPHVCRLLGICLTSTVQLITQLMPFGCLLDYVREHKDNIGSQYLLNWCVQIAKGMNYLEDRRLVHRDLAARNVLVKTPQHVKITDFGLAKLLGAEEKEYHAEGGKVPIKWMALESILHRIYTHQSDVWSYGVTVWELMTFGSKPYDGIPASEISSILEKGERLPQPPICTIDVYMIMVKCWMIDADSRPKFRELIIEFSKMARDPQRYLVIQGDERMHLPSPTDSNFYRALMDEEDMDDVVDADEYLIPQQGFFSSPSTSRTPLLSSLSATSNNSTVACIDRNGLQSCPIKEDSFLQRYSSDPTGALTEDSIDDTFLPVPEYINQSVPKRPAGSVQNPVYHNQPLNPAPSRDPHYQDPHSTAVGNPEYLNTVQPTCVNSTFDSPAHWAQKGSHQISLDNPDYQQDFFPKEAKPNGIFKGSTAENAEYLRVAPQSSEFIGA

In turn, `COC(=O)c1cn2ncnc(Nc3ccc4c(C)cc(=O)[nH]c4c3)c2c1C` gave a half-maximal inhibitory concentration (IC50) of 0.003 to 25 µM.
In turn, `CCOC(=O)c1cn2ncnc(Nc3ccccc3)c2c1CC` showed a half-inhibitory concentration (IC50) of 0.003 to 25 µM.
`Cc1c(C(=O)NCCN2CCOCC2)cn2ncnc(C3C(=O)Nc4ccccc43)c12` (stereo unspecified) showed a 50% inhibitory concentration (IC50) of 0.003 to 25 µM.
The figure for `CCOC(=O)c1cn2ncnc(Nc3ccc(OC)nc3)c2c1C` is 0.003 to 25 µM; for `COC(=O)c1cn2ncnc(C3C(=O)Nc4ccc(S(=O)(=O)N5CCOCC5)cc43)c2c1C` (stereo unspecified) it is 0.003 to 25 µM.
As for `COC(=O)c1cn2ncnc(Nc3ccc(C)c(S(N)(=O)=O)c3)c2c1C`, the figure is 0.003 to 25 µM; as for `COC(=O)c1cn2ncnc(Nc3ccc(C)c(F)c3)c2c1C`, 0.003 to 25 µM; as for `CCOC(=O)c1cn2ncnc(NCc3ccccc3Br)c2c1CC`, 0.003 to 25 µM.
As to `COC(=O)c1cn2ncnc(Nc3ccc4cc[nH]c4c3)c2c1C`, the half-inhibitory concentration (IC50) was 0.003 to 25 µM.
The figure for `COC(=O)c1cn2ncnc(Nc3ccc4c(c3)OCCO4)c2c1C` is 0.003 to 25 µM; for `CCOC(=O)c1cn2ncnc(Nc3ccc(C)c(N)c3)c2c1CC` it is 0.003 to 25 µM.
Consider `COC(=O)c1cn2ncnc(Nc3cccc(NC(C)=O)c3)c2c1C`, for which the 50% inhibitory concentration (IC50) lay in the range of 0.003 to 25 µM.
Regarding `Cc1ccc(Nc2ncnn3cc(C(=O)NCCCN4CCOCC4)c(C)c23)cc1O`, the IC50 lay within 0.003 to 25 µM.
`CCOC(=O)c1cn2ncnc(Nc3ccc4c(cnn4Cc4ccccc4)c3)c2c1CC` registered an IC50 of 0.003 to 25 µM.
The figure for `COC(=O)c1cn2ncnc(Nc3ccc(OC)c(O)c3)c2c1C` is 0.003 to 25 µM; for `COC(=O)c1cn2ncnc(Nc3cc(O)c4ccccc4c3)c2c1C` it is 0.003 to 25 µM; for `CCOC(=O)c1cn2ncnc(Nc3ccc(Br)cc3)c2c1CC` it is 0.003 to 25 µM.
With `Cc1ccc(Nc2ncnn3c(C)ccc23)cc1O`, the half-maximal inhibitory concentration (IC50) lay within 0.003 to 25 µM.
Regarding `CCOC(=O)c1cn2ncnc(Nc3ccc(C)c(O)c3)c2c1C(C)C`, the IC50 fell in the range of 0.003 to 25 µM.
The figure for `Cc1c(N)cn2ncnc(C3C(=O)Nc4ccccc43)c12` (stereo unspecified) is 0.003 to 25 µM.
The molecule `COC(=O)c1cn2ncnc(Nc3ccc(C)c(C#N)c3)c2c1C` registered an IC50 of 0.003 to 25 µM.
In turn, `COC(=O)c1cn2ncnc(Nc3ccc(Cl)c([N+](=O)[O-])c3)c2c1C` returned an IC50 of 0.003 to 25 µM.
In turn, `Cc1c(OCCCn2cncn2)cn2ncnc(C3C(=O)Nc4ccccc43)c12` (stereo unspecified) gave an IC50 of 0.003 to 25 µM.
`CCOC(=O)c1cn2ncnc(NCCOC)c2c1CC`: the IC50 lay within 0.003 to 25 µM.
The figure for `CCOC(=O)c1cn2ncnc(Nc3ccc(OC)cc3)c2c1CC` is 0.003 to 25 µM.
As for `COC(=O)c1cn2ncnc(Nc3cccc(S(N)(=O)=O)c3)c2c1C`, the figure is 0.003 to 25 µM.
Regarding `COCCCNC(=O)c1cn2ncnc(C3C(=O)Nc4ccccc43)c2c1C` (stereo unspecified), the IC50 lay in the range of 0.003 to 25 µM.
As for `CCOC(=O)c1cn2ncnc(Cl)c2c1CC`, the figure is 0.003 to 25 µM.
As to `COC(=O)c1cn2ncnc(Nc3ccc4c(c3)N(C(C)=O)CC4)c2c1C`, the IC50 fell in the range of 0.003 to 25 µM.
In the case of `COC(=O)c1cn2ncnc(Nc3ccc(Oc4ccccc4)cc3)c2c1C`, the IC50 lay within 0.003 to 25 µM.
For the molecule `COc1cn2ncnc(C3C(=O)Nc4ccccc43)c2c1C` (stereo unspecified), the half-inhibitory concentration (IC50) fell in the range of 0.003 to 25 µM.
In the case of `Fc1cc(Br)ccc1Nc1ncnn2cccc12`, the IC50 is 0.003 to 25 µM.
`CCOC(=O)c1cn2ncnc(NCc3ccc(Br)cc3)c2c1CC` gave an IC50 of 0.003 to 25 µM.
Take `Cc1c(C(=O)NCCCn2ccnc2C)cn2ncnc(C3C(=O)Nc4ccccc43)c12` (stereo unspecified): the IC50 was in the range of 0.003 to 25 µM.
Regarding `COC(=O)c1cn2ncnc(C3C(=O)Nc4ccc(NS(C)(=O)=O)cc43)c2c1C` (stereo unspecified), the IC50 was in the range of 0.003 to 25 µM.
As for `COC(=O)c1cn2ncnc(C3C(=O)Nc4ccc(F)cc43)c2c1C` (stereo unspecified), the IC50 fell in the range of 0.003 to 25 µM.
The molecule `Cc1ccc(Nc2ncnn3cccc23)cc1O` came in with a half-maximal inhibitory concentration (IC50) of 0.003 to 25 µM.
On to `Cc1c(C(=O)NCCCn2ccnn2)cn2ncnc(C3C(=O)Nc4ccccc43)c12` (stereo unspecified), for which the 50% inhibitory concentration (IC50) was 0.003 to 25 µM.
As to `COC(=O)c1cn2ncnc(Nc3cccc(C(=O)NN)c3)c2c1C`, the IC50 lay in the range of 0.003 to 25 µM.
Take `Cc1c(C(=O)NCC2CCCO2)cn2ncnc(C3C(=O)Nc4ccccc43)c12` (stereo unspecified): the IC50 was in the range of 0.003 to 25 µM.
Consider `Cc1c(C(=O)NCCCN2CCCC2)cn2ncnc(C3C(=O)Nc4ccccc43)c12` (stereo unspecified), for which the half-inhibitory concentration (IC50) lay within 0.003 to 25 µM.
The molecule `COc1c(NCCCCN2CCOCC2)cn2ncnc(C3C(=O)Nc4ccccc43)c12` (stereo unspecified) gave a concentration for half-maximal inhibition (IC50) of 0.003 to 25 µM.
`COC(=O)c1cn2ncnc(Nc3ccc(OC)nc3)c2c1C` had an IC50 of 0.003 to 25 µM.
Take `CCCc1c(C(=O)NCCCN2CCCC2)cn2ncnc(Nc3ccc(C)c(O)c3)c12`: the IC50 lay within 0.003 to 25 µM.
`Cc1c(C(=O)O)cn2ncnc(C3C(=O)Nc4ccccc43)c12` (stereo unspecified) displayed a 50% inhibitory concentration (IC50) of 0.003 to 25 µM.
The figure for `COc1c(NCCCCN2CCN(C)CC2)cn2ncnc(C3C(=O)Nc4ccccc43)c12` (stereo unspecified) is 0.003 to 25 µM; for `COC(=O)c1cn2ncnc(N3CCc4ccccc43)c2c1C` it is 0.003 to 25 µM; for `COc1c(C(=O)N(C)CCN2CCCC2)cn2ncnc(Nc3ccc(Br)cc3F)c12` it is 0.003 to 25 µM.
For `CCc1c(CO)c(Br)n2ncnc(Nc3ccc4c(cnn4Cc4ccccc4)c3)c12`, the half-maximal inhibitory concentration (IC50) lay in the range of 0.003 to 25 µM.
The figure for `Cc1cc2c(Nc3ccc(Br)cc3F)ncnn2c1` is 0.003 to 25 µM; for `CCCc1ccc(Nc2ncnn3cc(C(=O)OC)c(C)c23)cc1O` it is 0.003 to 25 µM.
Regarding `COC(=O)c1cn2ncnc(Nc3ccc(NC(C)=O)nc3)c2c1C`, the IC50 fell in the range of 0.003 to 25 µM.
On to `COC(=O)c1cn2ncnc(Nc3cccc(NS(C)(=O)=O)c3)c2c1C`, for which the IC50 lay in the range of 0.003 to 25 µM.
The figure for `COC(=O)c1cn2ncnc(Nc3cc(C)[nH]n3)c2c1C` is 0.003 to 25 µM.
As for `Cc1nc(C2C(=O)Nc3ccccc32)c2c(C)c(C(=O)NCCCN3CCOCC3)cn2n1` (stereo unspecified), the figure is 0.003 to 25 µM; as for `COC(=O)c1cn2ncnc(C3C(=O)Nc4nc(C)ncc43)c2c1C` (stereo unspecified), 0.003 to 25 µM.

Broadly, the IC50 is the concentration needed to halve the response being measured. The low end stands for inhibition by little substance, the high end for a need for much substance.
